Data published in ChEMBL document CHEMBL4052729, “Discovery of novel dengue virus entry inhibitors via a structure-based approach” (Bioorg Med Chem Lett, 2017).
pEC50: −log10 of the molar value. Converted amounts (≈) assume the structure as drawn.

How the values were obtained:
[1] = Selectivity index, ratio of CC50 for golden hamster BHK21 cells to EC50 for DENV2
dengue virus type 2 = experiment: Antiviral activity against DENV2 infected in human A549 or golden hamster BHK21 cells preincubated with viral inoculum for 30 mins followed by viral inoculum removal after 1 hr and subsequently incubated with fresh medium containing compound and measured 8 hrs post-infection by luciferase reporter gene assay; type: functional, cell-based
[2] = Selectivity index, ratio of CC50 for human A549 cells to EC50 for DENV2
[3] = Cytotoxicity against human A549 cells by MTT assay; type: cell-based
[4] = system: Bovine viral diarrhea virus 1; experiment: Antiviral activity against BVDV; type: functional; details: Bovine viral diarrhea virus isolates and strains
[5] = Cytotoxicity against golden hamster BHK21 cells by MTT assay; type: cell-based, Mesocricetus auratus, BHK-21
[6] = Stability of the compound in pH 7.4 PBS buffer after 24 to 48 hrs by chromatographic method; type: physicochemical
[7] = Aqueous solubility of the compound in buffer at pH 6.4 after 48 hrs UV spectroscopy based shake flask method; type: physicochemical
[8] = Aqueous solubility of the compound in buffer at pH 7.4 after 48 hrs UV spectroscopy based shake flask method; type: physicochemical
[9] = Aqueous solubility of the compound in buffer at pH 2.0 after 48 hrs UV spectroscopy based shake flask method; type: physicochemical

Structure (SMILES) | pEC50 (dengue virus type 2) | pEC50 [4] | Stability [6] [h] | solubility thermodynamic at 48 h [7] [µg/mL] | solubility thermodynamic at 48 h [8] [µg/mL] | solubility thermodynamic at 48 h [9] [µg/mL] | Ratio CC50/EC50 [1] | Ratio CC50/EC50 [2] | CC50 [3] [µM] | CC50 [5] [µM]
O=C(CSCC(=O)Nc1ccc(OC(F)(F)F)cc1)NNC(=S)Nc1ccccc1 | 5.29 | < 4.30 | > 48 | 13.1 (≈ 28.6 µM) | 1.2 (≈ 2.62 µM) | 8.2 (≈ 17.9 µM) | >20 | >20 | > 100 | > 100
O=C(Nc1ccc(Oc2ncnc3cc(Cl)ccc23)nc1)c1ccc(-c2ccccn2)s1 | 5.51 | < 4.30 | > 48 | 10.1 (≈ 22 µM) | 2.9 (≈ 6.31 µM) | 12.7 (≈ 27.6 µM) | >32 | >32 | > 100 | > 100
O=C1Nc2ccc(Cl)cc2[C@@](C#CC2CC2)(C(F)(F)F)O1 [EFAVIRENZ] | – | – | – | 68.3 (≈ 216 µM) | – | – | – | – | – | –

Continued, in another order:

pEC50 (dengue virus type 2) | pEC50 [4] | Stability [6] [h] | solubility thermodynamic at 48 h [7] [µg/mL] | solubility thermodynamic at 48 h [8] [µg/mL] | solubility thermodynamic at 48 h [9] [µg/mL] | Structure (SMILES) | Ratio CC50/EC50 [1] | Ratio CC50/EC50 [2] | CC50 [3] [µM] | CC50 [5] [µM]
4.64 | < 4.30 | – | – | – | – | O=C(Nc1ccccc1OCc1ccc(Cl)c(Cl)c1)c1ccco1 | >5 | >5 | > 100 | > 100
4.54 | < 4.30 | – | – | – | – | O=C(NC(=S)N1CCc2ccccc21)c1ccc(C#Cc2ccccc2)nc1 | >4 | >4 | > 100 | > 100
– | – | – | 7.3 (≈ 22 µM) | – | – | CN1C(C(=O)Nc2ccccn2)=C(O)c2ccccc2S1(=O)=O [PIROXICAM] | – | – | – | –
